In ChEMBL document CHEMBL5506022, “Discovery of Novel Dual Inhibitors Targeting Mutant IDH1 and NAMPT for the Treatment of Glioma with IDH1Mutation” (J Med Chem, 2024):
Activity calls are given as the source filed them. The calls are words filed in the database; no cut-off is given here.

Key:
[1] = Ratio of drug concentration in ICR mouse brain to plasma at 5 mg/kg, iv measured after 24 hrs by LC-MS/MS analysis; format: ADME, organism-based; conditions: read-out: BPR
U-87 MG [2] = format: functional, Homo sapiens, U-87MG ATCC; conditions: dose 0.5 µM; time 48 hrs
[3] = Acute toxicity in ICR mouse at 400 mg/kg, po measured for 7 days; format: organism-based; conditions: in vivo, 168 h, time 7 day
[4] = Tmax in Sprague-Dawley rat at 10 mg/kg, po measured after 24 hrs by LC-MS/MS analysis; format: ADME, organism-based; conditions: in vivo
U-87 MG [5] = format: functional, Homo sapiens, U-87MG ATCC; conditions: dose 0.5 µM; time 48 hrs; remark: listed apart in the source
[6] = Half-life in Sprague-Dawley rat at 10 mg/kg, po measured after 24 hrs by LC-MS/MS analysis; format: ADME, organism-based; conditions: in vivo
[7] = Half-life in Sprague-Dawley rat at 1 mg/kg, iv measured after 24 hrs by LC-MS/MS analysis; format: ADME, organism-based; conditions: in vivo
[8] = target: Voltage-gated inwardly rectifying potassium channel KCNH2 (Homo sapiens, UniProt Q12809); assay: Inhibition of human ERG in CHO cells incubated for 2.5 mins by Qpatch electrogram analysis; format: toxicity, cell-based
Chain of Voltage-gated inwardly rectifying potassium channel KCNH2 (Q12809 whole entry): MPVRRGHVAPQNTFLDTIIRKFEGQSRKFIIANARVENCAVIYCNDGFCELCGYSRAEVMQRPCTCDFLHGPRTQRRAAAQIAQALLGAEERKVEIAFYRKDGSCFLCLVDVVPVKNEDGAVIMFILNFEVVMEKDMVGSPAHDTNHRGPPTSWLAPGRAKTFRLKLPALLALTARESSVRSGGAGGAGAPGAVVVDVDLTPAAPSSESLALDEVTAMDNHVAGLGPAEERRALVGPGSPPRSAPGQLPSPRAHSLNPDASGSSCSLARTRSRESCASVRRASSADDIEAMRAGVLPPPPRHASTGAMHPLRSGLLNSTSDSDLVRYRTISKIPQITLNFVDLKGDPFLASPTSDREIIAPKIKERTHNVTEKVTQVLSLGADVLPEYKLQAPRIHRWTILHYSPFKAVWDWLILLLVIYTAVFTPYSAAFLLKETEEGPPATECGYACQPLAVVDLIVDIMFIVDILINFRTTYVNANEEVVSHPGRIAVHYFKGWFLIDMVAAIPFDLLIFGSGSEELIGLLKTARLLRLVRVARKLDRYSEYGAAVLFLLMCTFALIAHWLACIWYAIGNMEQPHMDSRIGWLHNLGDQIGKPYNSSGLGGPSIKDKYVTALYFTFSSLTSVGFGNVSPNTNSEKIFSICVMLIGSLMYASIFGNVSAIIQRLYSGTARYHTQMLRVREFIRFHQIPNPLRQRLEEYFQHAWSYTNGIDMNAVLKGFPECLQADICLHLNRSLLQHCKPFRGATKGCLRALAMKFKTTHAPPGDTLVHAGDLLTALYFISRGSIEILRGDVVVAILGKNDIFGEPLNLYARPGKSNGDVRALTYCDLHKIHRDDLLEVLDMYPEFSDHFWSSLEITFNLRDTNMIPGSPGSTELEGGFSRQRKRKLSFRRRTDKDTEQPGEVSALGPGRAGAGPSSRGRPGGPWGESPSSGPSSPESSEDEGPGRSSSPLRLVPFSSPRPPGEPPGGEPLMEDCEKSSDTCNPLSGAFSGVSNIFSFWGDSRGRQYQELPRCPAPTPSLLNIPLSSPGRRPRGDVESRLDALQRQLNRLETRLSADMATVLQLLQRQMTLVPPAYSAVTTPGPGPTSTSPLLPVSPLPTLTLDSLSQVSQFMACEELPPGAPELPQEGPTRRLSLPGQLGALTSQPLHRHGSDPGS

[9] = target: Isocitrate dehydrogenase [NADP], mitochondrial (Homo sapiens, UniProt P48735, R172K); assay: Inhibition of IDH2 R172K mutant (unknown origin) using alpha-ketoglutarate as substrate incubated in presence of NADPH by Envision multimode plate reader analysis
Chain of Isocitrate dehydrogenase [NADP], mitochondrial (Homo sapiens, UniProt P48735, R172K) (P48735 40-452 R172K limits assumed): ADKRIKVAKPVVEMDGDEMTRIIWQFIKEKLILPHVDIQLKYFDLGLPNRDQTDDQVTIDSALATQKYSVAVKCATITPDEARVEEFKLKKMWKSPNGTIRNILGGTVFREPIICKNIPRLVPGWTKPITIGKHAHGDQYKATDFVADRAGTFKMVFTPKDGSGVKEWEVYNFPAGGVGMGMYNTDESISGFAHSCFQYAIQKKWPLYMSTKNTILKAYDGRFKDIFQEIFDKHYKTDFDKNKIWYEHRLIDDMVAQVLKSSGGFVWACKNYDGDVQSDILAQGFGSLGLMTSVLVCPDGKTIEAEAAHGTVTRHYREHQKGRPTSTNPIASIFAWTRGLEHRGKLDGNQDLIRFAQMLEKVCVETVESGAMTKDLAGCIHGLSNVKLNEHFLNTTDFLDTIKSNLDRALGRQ

U-87 MG [10] = format: functional, U-87MG ATCC; conditions: Homo sapiens, time 48 hrs, read-out: Activity
U-87 MG [11] = assay: Antiproliferative activity against human U-87 MG cells harboring wildtype IDH1 assessed as inhibition of cell growth incubated for 72 hrs by CCK8 assay; format: functional, cell-based, U-87MG ATCC
[12] = Tmax in Sprague-Dawley rat at 1 mg/kg, iv measured after 24 hrs by LC-MS/MS analysis; format: ADME, organism-based; conditions: in vivo
U-87 MG [13] = format: functional, Homo sapiens, U-87MG ATCC; conditions: dose 10 mg/kg; route iv; time 35 day
[14] = Permeability of compound by PAMPA-BBB assay; format: ADME; conditions: read-out: permeability
[15] = Cmax in Sprague-Dawley rat at 1 mg/kg, iv measured after 24 hrs by LC-MS/MS analysis; format: ADME, organism-based; conditions: in vivo
U-87MG ATCC [16] = assay: Effect on intracellular NADP+ level in human U-87 MG cells harboring wildtype IDH1; format: functional, cell-based
U-87 MG [17] = format: functional, cell-based, U-87MG ATCC; conditions: Homo sapiens, 48 h
[18] = AUC (0 to t) in Sprague-Dawley rat at 1 mg/kg, iv measured after 24 hrs by LC-MS/MS analysis; format: ADME, organism-based; conditions: in vivo
[19] = Cmax in Sprague-Dawley rat at 10 mg/kg, po measured after 24 hrs by LC-MS/MS analysis; format: ADME, organism-based; conditions: in vivo
U-87 MG [20] = format: functional, Homo sapiens, U-87MG ATCC; conditions: dose 20 mg/kg; route iv; time 35 day
[21] = AUC in ICR mouse plasma at 5 mg/kg, iv measured after 24 hrs by LC-MS/MS analysis; format: ADME, organism-based
U-87MG ATCC [22] = format: functional, cell-based; conditions: Homo sapiens, dose 0.5-2 µM, time 24.0 hrs
[23] = target: Isocitrate dehydrogenase [NADP], mitochondrial (Homo sapiens, UniProt P48735, R140Q); assay: Inhibition of IDH2 R140Q mutant (unknown origin) using alpha-ketoglutarate as substrate incubated in presence of NADPH by Envision multimode plate reader analysis
Chain of Isocitrate dehydrogenase [NADP], mitochondrial (Homo sapiens, UniProt P48735, R140Q) (P48735 40-452 R140Q limits assumed): as the sequence (P48735 40-452 R172K limits assumed) above, with R101Q, K133R counted along it

U-87 MG [24] = format: functional, cell-based, U-87MG ATCC; conditions: Homo sapiens, 24 h
U-87 MG [25] = format: functional, Homo sapiens, U-87MG ATCC; conditions: dose 40 mg/kg; route iv; time 35 day
U-87MG ATCC [26] = format: functional, cell-based; conditions: Homo sapiens, dose 0.5-2 µM, time 24.0 hrs; remark: listed apart in the source
[27] = AUC in ICR mouse brain at 5 mg/kg, iv measured after 24 hrs by LC-MS/MS analysis; format: ADME, organism-based
U-87 MG [28] = format: functional, cell-based; conditions: Homo sapiens; U-87MG ATCC; dose 10-40 mg/kg, route iv, time 35.0 day
U-87 MG [29] = format: functional, Homo sapiens, U-87MG ATCC; conditions: dose 2 µM; time 48 hrs
[30] = target: Isocitrate dehydrogenase [NADP] cytoplasmic (Homo sapiens, UniProt O75874); assay: Inhibition of wildtype IDH1 (unknown origin) using DL-isocitrate as substrate incubated for 60 mins in presence of NADP by fluorescence microplate reader
Chain of Isocitrate dehydrogenase [NADP] cytoplasmic (Homo sapiens, UniProt O75874) (O75874 whole entry): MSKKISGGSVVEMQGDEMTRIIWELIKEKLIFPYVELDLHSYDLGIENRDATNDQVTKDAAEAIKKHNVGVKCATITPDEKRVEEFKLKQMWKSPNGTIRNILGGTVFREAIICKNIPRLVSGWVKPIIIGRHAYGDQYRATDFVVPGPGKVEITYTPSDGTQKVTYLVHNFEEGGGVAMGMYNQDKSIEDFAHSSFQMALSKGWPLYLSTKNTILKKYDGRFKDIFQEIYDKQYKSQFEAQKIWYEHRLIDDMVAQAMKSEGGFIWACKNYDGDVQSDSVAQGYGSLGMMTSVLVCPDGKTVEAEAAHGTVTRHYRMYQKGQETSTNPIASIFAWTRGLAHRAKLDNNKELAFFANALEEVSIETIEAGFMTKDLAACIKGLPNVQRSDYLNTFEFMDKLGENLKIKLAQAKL

U-87MG ATCC [31] = format: functional, cell-based; conditions: Homo sapiens, dose 0.5-2 µM, time 48.0 hrs
U-87 MG [32] = assay: Antiproliferative activity against human U-87 MG cells harboring wildtype IDH1 assessed as inhibition of cell growth incubated for 24 hrs by CCK8 assay; format: functional, cell-based, U-87MG ATCC
[33] = target: T1, Nicotinamide phosphoribosyltransferase (Homo sapiens, UniProt P43490); format: cell-based; conditions: U-87 MG, dose 0.5 µM, time 6.0 hrs
Target sequence in this assay (P43490 whole entry, looked up): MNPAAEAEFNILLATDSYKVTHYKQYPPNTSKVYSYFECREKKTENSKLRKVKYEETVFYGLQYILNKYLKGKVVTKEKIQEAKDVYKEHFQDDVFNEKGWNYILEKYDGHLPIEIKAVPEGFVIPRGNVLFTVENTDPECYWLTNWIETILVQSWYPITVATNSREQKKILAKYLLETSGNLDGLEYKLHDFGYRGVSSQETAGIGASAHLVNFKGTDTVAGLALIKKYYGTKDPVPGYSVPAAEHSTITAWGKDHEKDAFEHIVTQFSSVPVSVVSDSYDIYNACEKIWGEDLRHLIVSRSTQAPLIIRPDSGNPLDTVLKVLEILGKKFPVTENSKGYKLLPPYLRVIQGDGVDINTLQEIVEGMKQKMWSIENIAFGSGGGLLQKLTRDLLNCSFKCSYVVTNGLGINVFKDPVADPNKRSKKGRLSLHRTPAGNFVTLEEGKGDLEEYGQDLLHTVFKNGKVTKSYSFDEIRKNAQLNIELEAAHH

[34] = AUC (0 to t) in Sprague-Dawley rat at 10 mg/kg, po measured after 24 hrs by LC-MS/MS analysis; format: ADME, organism-based; conditions: in vivo
U-87MG ATCC [35] = format: functional, cell-based; conditions: Homo sapiens, dose 0.5-2 µM, time 24.0 hrs; remark: listed apart in the source
U-87 MG [36] = assay: cells; conditions: Homo sapiens, 48 h, read-out: Activity
U-87 MG [37] = format: functional, organism-based; conditions: Homo sapiens; U-87MG ATCC; dose 10-40 mg/kg, route iv, time 35.0 day
U-87 MG [38] = format: functional, organism-based; conditions: Homo sapiens; U-87MG ATCC; dose 10-40 mg/kg, route iv, time 35.0 day; remark: listed apart in the source
U-87MG ATCC [39] = format: functional, cell-based; conditions: Homo sapiens, dose 0.5-2 µM, time 24.0 hrs; remark: listed apart in the source
U-87 MG [40] = format: functional, Homo sapiens, U-87MG ATCC; conditions: dose 2 µM; time 48 hrs; remark: listed apart in the source
U-87MG ATCC [41] = format: functional, cell-based; conditions: Homo sapiens, dose 0.5-2 µM, time 24.0 hrs; remark: listed apart in the source
U-87MG ATCC [42] = format: functional, cell-based; conditions: Homo sapiens, dose 0.5-2 µM, time 48.0 hrs; remark: listed apart in the source
U-87 MG [43] = assay: Antiproliferative activity against human U-87 MG cells harboring wildtype IDH1 assessed as inhibition of cell growth incubated for 48 hrs by CCK8 assay; format: functional, cell-based, U-87MG ATCC
U-87 MG [44] = format: functional, Homo sapiens, U-87MG ATCC; conditions: dose 2 µM; time 48 hrs; remark: listed apart in the source
[45] = Oral bioavailability in Sprague-Dawley rat at 10 mg/kg measured after 24 hrs by LC-MS/MS analysis; format: ADME, organism-based; conditions: in vivo
[46] = target: T2, Isocitrate dehydrogenase [NADP], mitochondrial (Homo sapiens, UniProt P48735); assay: Inhibition of wildtype IDH2 (unknown origin) […] by Envision multimode plate reader analysis
T2 sequence (P48735 whole entry): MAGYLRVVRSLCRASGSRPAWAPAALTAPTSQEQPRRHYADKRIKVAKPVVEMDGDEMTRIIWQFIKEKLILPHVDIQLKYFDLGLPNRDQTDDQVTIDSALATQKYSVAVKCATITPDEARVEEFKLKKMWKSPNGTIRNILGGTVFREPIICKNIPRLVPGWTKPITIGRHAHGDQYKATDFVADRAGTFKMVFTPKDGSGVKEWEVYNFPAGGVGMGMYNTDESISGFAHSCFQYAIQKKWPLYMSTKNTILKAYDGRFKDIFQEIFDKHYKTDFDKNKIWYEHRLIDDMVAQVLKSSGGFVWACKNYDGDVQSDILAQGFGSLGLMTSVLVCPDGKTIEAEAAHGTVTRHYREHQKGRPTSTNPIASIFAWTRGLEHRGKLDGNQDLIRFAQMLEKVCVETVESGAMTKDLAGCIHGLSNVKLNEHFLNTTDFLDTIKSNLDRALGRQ

[47] = target: T1, Nicotinamide phosphoribosyltransferase; format: cell-based; conditions: U-87 MG, dose 0.5-2 µM, time 48.0 hrs
Target sequence in this assay (P43490 whole entry, looked up): as the sequence (P43490 whole entry, looked up) above

[48] = AUC (0 to infinity) in Sprague-Dawley rat at 1 mg/kg, iv measured after 24 hrs by LC-MS/MS analysis; format: ADME, organism-based; conditions: in vivo
[49] = target: Isocitrate dehydrogenase [NADP] cytoplasmic (Homo sapiens, UniProt O75874, R132C); assay: Inhibition of recombinant IDH1 R132C mutant (unknown origin) using alpha-ketoglutarate as substrate incubated for 60 mins in presence of NADPH by fluorescence microplate reader
Chain of Isocitrate dehydrogenase [NADP] cytoplasmic (Homo sapiens, UniProt O75874, R132C) (O75874 2-414 R132C limits assumed): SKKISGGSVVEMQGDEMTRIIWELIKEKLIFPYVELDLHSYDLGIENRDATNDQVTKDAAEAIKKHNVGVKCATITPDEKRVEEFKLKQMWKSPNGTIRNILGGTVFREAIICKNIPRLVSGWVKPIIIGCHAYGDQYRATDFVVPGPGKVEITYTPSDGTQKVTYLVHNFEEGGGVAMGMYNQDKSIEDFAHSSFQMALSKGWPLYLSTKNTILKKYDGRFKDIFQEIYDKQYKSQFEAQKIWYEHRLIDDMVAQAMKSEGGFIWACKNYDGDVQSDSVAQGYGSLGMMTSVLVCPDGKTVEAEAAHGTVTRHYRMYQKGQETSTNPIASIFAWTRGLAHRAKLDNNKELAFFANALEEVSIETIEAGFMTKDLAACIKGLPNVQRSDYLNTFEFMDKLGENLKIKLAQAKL

U-87 MG [50] = format: functional, cell-based, U-87MG ATCC; conditions: Homo sapiens, 72 h
[51] = Clearance in Sprague-Dawley rat at 1 mg/kg, iv measured after 24 hrs by LC-MS/MS analysis; format: ADME, organism-based; conditions: in vivo
[52] = AUC (0 to infinity) in Sprague-Dawley rat at 10 mg/kg, po measured after 24 hrs by LC-MS/MS analysis; format: ADME, organism-based; conditions: in vivo
[53] = target: T1, Nicotinamide phosphoribosyltransferase
Target sequence in this assay (P43490 whole entry): as the sequence (P43490 whole entry, looked up) above

U-87 MG [54] = format: functional, U-87MG ATCC; conditions: Homo sapiens, time 48 hrs, read-out: Activity; remark: listed apart in the source
U-87MG ATCC [55] = format: functional, cell-based; conditions: Homo sapiens, dose 0.5-2 µM, time 24.0 hrs; remark: listed apart in the source
U-87 MG [56] = format: functional, Homo sapiens, U-87MG ATCC; conditions: dose 0.5 µM; time 48 hrs; remark: listed apart in the source

C[C@H](Nc1nccc(N2C(=O)OC[C@@H]2[C@H](C)F)n1)c1ccc(-c2ccc(NC(=O)COc3cccnc3)cc2)cc1
Kp at 24 h [1]: 0.76 | Activity (U-87 MG [2]): 2.84% | Activity [3]: Non-Toxic | Tmax [4]: 45 min | Activity (U-87 MG [5]): 21.9% | half-life [6]: 124 min | half-life [7]: 69.6 min | IC50 [8]: > 40000 nM | IC50 [9]: > 100000 nM | viability at 0.5 µM (U-87 MG [10]): 44.6% | IC50 (U-87 MG [11]): 420 nM | Tmax [12]: 1.98 min | MST (U-87 MG [13]): 25.5 days | Papp [14]: 4.07 ×10⁻⁶ cm/s | Cmax [15]: 4070 ng/mL | Activity (U-87MG ATCC [16]): inactive | IC50 (U-87 MG [17]): 470 nM | AUC(0-t) at 24 h [18]: 1930 ng·h/mL | Cmax [19]: 867 ng/mL | MST (U-87 MG [20]): 30.5 days | AUC at 24 h [21]: 20300 ng·h/mL | Activity (U-87MG ATCC [22]): Active | IC50 [23]: > 100000 nM | IC50 (U-87 MG [24]): 890 nM | MST (U-87 MG [25]): 34 days | Activity (U-87MG ATCC [26]): Active | AUC at 24 h [27]: 15600 ng·h/mL | Activity (U-87 MG [28]): Dose-Dependent Effect | Activity (U-87 MG [29]): 25.5% | IC50 [30]: 8950 nM | Activity (U-87MG ATCC [31]): inactive | IC50 (U-87 MG [32]): 1260 nM | Activity [33]: Active | AUC(0-t) at 24 h [34]: 919 ng·h/mL | Activity (U-87MG ATCC [35]): Active | viability at 1 µM (U-87 MG [36]): 35.5% | Activity (U-87 MG [37]): Active | Activity (U-87 MG [38]): Active | Activity (U-87MG ATCC [39]): Active | Activity (U-87 MG [40]): 4.51% | Activity (U-87MG ATCC [41]): Active | Activity (U-87MG ATCC [42]): Dose-Dependent Effect | IC50 (U-87 MG [43]): 770 nM | Activity (U-87 MG [44]): 35.4% | bioavailability [45]: 4.75% | IC50 [46]: > 100000 nM | inhibition [47]: Dose-Dependent Effect | AUC(0-inf) [48]: 1940 ng·h/mL | IC50 [49]: 65.1 nM | IC50 (U-87 MG [50]): 320 nM | clearance [51]: 4.33 mL/min/kg | AUC(0-inf) [52]: 921 ng·h/mL | IC50 [53]: 49.2 nM | viability at 2 µM (U-87 MG [54]): 34.7% | Activity (U-87MG ATCC [55]): Active | Activity (U-87 MG [56]): 30.6%
